Experimental findings from patent US20080108677A1, “Thioxothiazolidinone Compounds For Use As Pharmaceuticals” (Karyon-CTT Ltd, priority 2004, published 2008) are described below.

Data set [1] relates to THP-1 monocytic leukemia cells. Briefly: Cell viability/toxicity, THP-1. It is filed as cell-based, Human. To be noted: 48 h, serum-containing medium, 50 μM, data not shown. The protocol: (§1) Cell culture. Human monocytic leukemia THP-1, OCI-AML-3 acute myeloid leukemia and human HT1080 fibrosarcoma cells were cultured as described (Koivunen et al., 1999; Koivunen et al., 2001; Stefanidakis et al., 2003). The cell viability was measured using an 3-[4,5-dimethylthiazol-2-yl]-2,5-diphenyl tetrazolium bromide assay as described (Bjorklund et al., 2004).
(§2) We next evaluated the ability of DDGW peptide and the chemicals to compete with antibody binding to immobilized αM I domain-GST fusion. […] The epitope of this antibody is located in the β2 I-like domain (FIG. 4B). […] Before conducting cell-based experiments, we tested possible toxicity of the chemicals. The compounds were incubated with THP-1 monocytic leukemia and OCI-AML-3 acute myeloid leukemia cells for 48 h in serum-containing cell culture medium.

Data set [2] relates to OCI-AML-3 acute myeloid leukemia cells. Briefly: Cell viability/toxicity, OCI-AML-3. It is filed as cell-based. To be noted: 48 h, serum-containing medium, 50 μM, data not shown. The protocol: as §1, §2
In data set [3] the test system is THP-1 cells. Kind of data set: THP-1 transwell migration on LLG-C4-GST coating. It is filed as cell-based, Human. The protocol: (§3) Cell adhesion and migration. Cell adhesion was performed as described (Koivunen et al., 2001). Briefly, THP-1 cells (50 000/well) were stimulated with 50 nM PDBu (4β-phorbol-12,13-dibutyrate, SigmaAldrich) and allowed to bind to the fibrinogen coated microtiter wells (10 μg/ml) in the presence or absence of compounds or DMSO in serum-free RPMI medium containing 0.1% BSA. Non-adherent cells were removed by gentle washing with PBS or 2.5 mM EDTA in PBS, and adherent cells were quantitated with a phosphatase assay (Koivunen et al., 2001). Alternatively, THP-1 cells were stimulated with 20 nM PDBu and allowed to adhere on uncoated plastic overnight. Nonadherent cells were removed by washing with PBS followed by six washes with 2.5 mM EDTA in PBS. Cell migration was done using transwells (5 μm pore size) coated with 40 μg/ml LLG-C4-GST or fibrinogen (Koivunen et al., 2001). THP-1 and OCI-AML-3 cells (50 000 cells/100 μl) were allowed to migrate overnight in 10% FBS/RPMI medium in the presence or absence of peptides or compounds and stimulating cell migration with 40 nM PDBu. Gelatinase-selective inhibitor I (InhI) at a 50 μM concentration (Calbiochem) was used to evaluate the level of gelatinase-dependent migration on fibrinogen. Migrated cells were stained with crystal violet and counted (Koivunen et al., 2001). Migration of HT1080 cells on serum coated transwells was conducted as described (Koivunen et al., 1999).

In data set [4] the test system is OCI-AML-3 cells. Kind of data set: OCI-AML-3 transwell migration on fibrinogen. It counts as cell-based. To be noted: 25 μM, 40 nM PDBu. The protocol: as §3, with “Migration of HT1080 cells on serum coated transwells was conducted as described (Koivunen et al., 1999).” left out
Data set [5] deals with THP-1 cells. Briefly: THP-1 transwell migration on fibrinogen. It counts as cell-based, Human. To be noted: 25 μM, 40 nM PDBu. The protocol:
as §3, with “Migration of HT1080 cells on serum coated transwells was conducted as described (Koivunen et al., 1999).” left out

The target of another data set is T1, αM I domain (Homo sapiens, UniProt P11215).
T1 construct: immobilizing 20 ng/well recombinant αM I domain-GST fusion in 96-well plates
Kind of data set: Inhibition of antibody binding to immobilized αM I domain-GST fusion. As to conditions: for inhibition at 50 µM: read-out: inhibition of mAb LM2/1 binding. The protocol: (§4) Inhibition of antibody binding to the integrins. The αM I domain or purified αMβ2 integrin (50 ng/well) were coated on microtiter wells followed by saturation of the wells with 1% BSA in PBS/0.05% Tween20. The DDGW peptide or the compounds at concentrations indicated were preincubated for 30 minutes with the integrin, followed by addition of the antibodies LM2/1, MEM170, OKM-10, IB4 or a control IgG at a 1 μg/ml final concentration. The antibodies LM2/1 and MEM170 recognize the αM integrin I domain, whereas the epitope for OKM-10 is located outside the αM I domain (Koivunen et al., 2001; Li et al., 1995; Stefanidakis et al., 2003). The antibodies were incubated for 45 minutes followed by detection of the bound antibodies with a peroxidase conjugated anti-mouse antibody.

The test system of data set [6] is HT1080 fibrosarcoma cells. Kind of data set: HT1080 migration on serum coated transwells. It is filed as cell-based, human. The protocol: as §3, with “Migration of HT1080 cells on serum coated transwells was conducted as described (Koivunen et al., 1999).” left out
In the next data set the target is T2, αL I domain (Homo sapiens, UniProt P20701).
T2 sequence (P20701 156-327 limits assumed): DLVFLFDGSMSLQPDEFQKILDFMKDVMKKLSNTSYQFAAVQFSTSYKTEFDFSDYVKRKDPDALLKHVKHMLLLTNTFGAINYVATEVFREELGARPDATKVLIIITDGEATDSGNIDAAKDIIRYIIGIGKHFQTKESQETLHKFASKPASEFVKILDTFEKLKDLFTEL
Briefly: Antibody binding to αL I domain.

In the next data set the target is αMβ2 integrin (Homo sapiens, UniProt P11215). Kind of data set: Inhibition of antibody binding to purified αMβ2 integrin. As to conditions: 25 μM; epitope in β2 I-like domain. The protocol:
as §4

Data set [7] relates to THP-1 cells. Briefly: THP-1 adhesion to uncoated plastic. It counts as cell-based, Human. To be noted: 20 nM PDBu; 25 μM compounds; overnight. The protocol:
as §3, with “Migration of HT1080 cells on serum coated transwells was conducted as described (Koivunen et al., 1999).” left out

Data set [8] relates to OCI-AML-3 cells. Kind of data set: Pericellular gelatinase-dependent uPAR cleavage. To be noted: 20 μM; PDBu stimulated; 48 hours. It counts as cell-based. The protocol:
Cellular cleavage of the urokinase-plasminogen activator receptor. Pericellular gelatinase-dependent uPAR cleavage was performed as described (Bjorklund et al., 2004). Briefly, OCI-AML-3 cells were stimulated with PDBu or left untreated and cultured for 48 hours in the presence of 20 μM IMB-10, the gelatinase-selective inhibitor (InhI) or vehicle (DMSO). uPAR and the cleaved form of uPAR D2+3 was detected with western blotting using a polyclonal antibody to uPAR (399R, American Diagnostica).

Data set [9] concerns THP-1 cells. Briefly: THP-1 adhesion to fibrinogen. It counts as cell-based, Human. The protocol:
as §3, with “Migration of HT1080 cells on serum coated transwells was conducted as described (Koivunen et al., 1999).” left out

For a further data set, the target named is T3, αM I domain / proMMP-9 (Homo sapiens, UniProt P11215).
T3 construct: Soluble αM integrin I domain-GST fusion (2.5 μg/ml) was added; made in house
Briefly: proMMP-9 binding to the αM integrin I domain. As to conditions: 10 μM. The protocol: proMMP-9 and fibrinogen binding to the αM integrin I domain. […] The resulting MMP-9 with this mutation is structurally identical to the wild type protein (Rowsell et al., 2002). ProMMP-9-ΔHC-E^402Q, intact proMMP-9 or fibrinogen (100 ng/well) was coated on microtiter wells in TBS followed by saturation of the wells with 1% BSA in PBS/0.05% Tween20. Soluble αM integrin I domain-GST fusion (2.5 μg/ml) was added in the presence or absence of peptides or compounds in 0.1% BSA/TBS/0.05% Tween20/1 mM CaCl2/1 mM MgCl2, and incubated for one hour. In some experiments 10 mM CaCl2 or 10 mM MgCl2 were used instead of 1 mM CaCl2/1 mM MgCl2. Bound GST fusion was detected with anti-GST antibody (1:2000 dilution) and peroxidase-conjugated anti-goat antibody (1:2000 dilution).

For the next data set, the target named is T4, αM I domain-GST fusion (Homo sapiens, UniProt P11215).
T4 construct: immobilizing 20 ng/well recombinant αM I domain-GST fusion in 96-well plates
Briefly: DDGW-phage binding competition assay. As to conditions: dilution series 10 μM to 150 nM; mean of three independent experiments; read-out: IC50 for the inhibition of DDGW-phage binding to the αM I domain. The protocol: Screening of the compound library. A combinatorial library of 10 000 small molecules was purchased from ChemBridge (San Diego, Calif.). A competition assay with the DDGW peptide bearing phage was set up by immobilizing 20 ng/well recombinant αM I domain-GST fusion in 96-well plates (Michishita et al., 1993). The compounds were used in pools comprising eight compounds, each at a 5 μM concentration and DMSO at a 1.25% concentration. After preincubation of the compounds in the wells, DDGW phage was added (3×10^8 transducing units/well). As controls, soluble DDGW peptide and a control peptide, and an unrelevant phage were included in every plate. Phage binding was detected with an anti-phage antibody as described (Bjorklund et al., 2004). Pools with inhibitory activity were re-tested as single compounds. The DDGW-phage inhibiting activity of these hits at a 10 μM concentration is shown in supplementary data. To calculate the IC50 values for the compounds, dilution series from the DDGW peptide and compounds were made (10 μM to 150 nM) and DDGW phage binding was measured. No inhibitor (DMSO as a vehicle) was used as 100% binding after subtracting the background value obtained with an irrelevant control phage.

The test system of data set [10] is leukocytes emigrated into the peritoneum. Kind of data set: Thioglycollate-induced peritonitis, leukocyte emigration in vivo. Also noted: species or system mice. As to conditions: i.v. The protocol:
Neutrophil emigration in vivo. The mouse experiments were approved by the ethical committee for the animal experiments at the University of Helsinki. Inflammation was induced in BALB/cOlaHsd female maintained in the Viikki Laboratory Animal Centre by injecting 1 ml 4% thioglycollate broth in PBS i.p. followed by intravenous injections of chemicals (200 μl at a 20, 5 or 1 μg/ml concentration) or PBS after five minutes. Cells emigrated in the peritoneum after 3 or 24 h were counted using a hemocytometer. Statistical significance between groups in the peritonitis model was calculated with one-way ANOVA and found differences were analyzed by Bonferroni pairwise multiple comparison tests. Results with p<0.01 were deemed significant.

`CCN1C(=O)/C(=C\c2ccc(OCCCOc3cc(C)cc(C)c3)c(OC)c2)SC1=S` [IMB-2, (E)-5-(4-(3-(3,5-dimethylphenoxy)propoxy)-3-methoxybenzylidene)-3-ethyl-2-thioxothiazolidin-4-one]: the “toxicity / effect on cell proliferation” value in data set [1] and in [2] was “no significant effect” in each case. For the same compound, the “inhibition of cell migration on LLG-C4-GST” value in the data set on THP-1 cells [3] (25 μM) is listed as “did not siginificantly inhibit cell migration”; in the data set on THP-1 cells [3] (100 μM, not shown) it was “became inhibitory”. The “inhibition of migration on fibrinogen-coated transwells” value in the data set with OCI-AML-3 cells [4] and in the data set with THP-1 cells [5] was “less active” each time.

Turning to `O=C1/C(=C/c2ccc(-c3cccc([N+](=O)[O-])c3)o2)SC(=S)N1Cc1ccccc1` [IMB-6, (Z)-3-benzyl-5-((5-(3-nitrophenyl)furan-2-yl)methylene)-2-thioxothiazolidin-4-one], the “toxicity / effect on cell proliferation” value in [1] and in data set [2] was “toxic” each time. On αM I domain, the inhibition at 50 µM turned out to be 75%.

Consider `Cc1ccccc1N1C(=O)/C(=C/C=C/c2ccccc2)SC1=S` [IMB-10, (5Z)-5((E)-3-phenylallylidene)-2-thioxo-3-o-tolylthiazolidin-4-one], for which, in [6], the “β2 integrin-independent migration of HT1080 cells” value is “no effect”. In addition, the “toxicity / effect on cell proliferation” value in data set [1] and in data set [2] was “no significant effect” throughout. For the same compound, the “binding of TS1/22 and MEM83 antibodies to αL I domain” value at αL I domain is on record as “similarly affected”. Also, the “inhibition of mAb IB4 binding to purified αMβ2” value at αMβ2 integrin is given as “inhibited”. Also, the inhibition at 50 µM on αM I domain is 75%. Also, in the data set on THP-1 cells [7], the “adhesion to plastic after washing with 2.5 mM EDTA” value was “resisted detachment and remained adherent”. Moreover, in the data set with OCI-AML-3 cells [8], the “inhibition of uPAR cleavage (uPAR D2+3 form)” value is listed as “could not be inhibited”. Besides, the “inhibition of cell migration on LLG-C4-GST” value in the data set on THP-1 cells [3] (25 μM) is given as “potently inhibited cell migration”. For the same compound, the “adhesion to fibrinogen after washings with EDTA” value in the data set on THP-1 cells [9] (50 nM PDBu, 25 μM, 2.5 mM EDTA) is listed as “more resistant”. In addition, the “cell adhesion in the absence of phorbol ester activation” value in the data set on THP-1 cells [9] (no phorbol ester, data not shown) is on record as “did not increase cell adhesion”. For the same compound, the “inhibition of migration on fibrinogen-coated transwells” value with OCI-AML-3 cells [4] and in the data set with THP-1 cells [5] was “completely inhibited migration” each time. For the same compound, the “αM I domain binding to proMMP-9-E402Q-ΔHC” value on αM I domain / proMMP-9 (10 mM Ca2+) is given as “nearly completely antagonized”; on αM I domain / proMMP-9 (10 mM Mg2+), “strong binding”; at αM I domain / proMMP-9 (equimolar Ca2+ and Mg2+) it was “intermediate”. Also, on αM I domain-GST fusion, the IC50 is 400 ± 200 nM. Further, the “number of leukocytes emigrated into the peritoneum” value is “still low” in [10] (after 24 hours) and “dose-dependent decrease” in data set [10] (three hours after induction).

Take `CC[C@H](C)C(=O)O[C@H]1C[C@@H](C)C=C2C=C[C@H](C)[C@H](CC[C@@H]3C[C@@H](O)CC(=O)O3)[C@H]21` [lovastatin, reference compound]: at αM I domain (DDGW peptide 100 μM, chemical competitors 50 μM), the “effect on antibody binding” value is “only a marginal effect”.

As a reminder, the IC50 is the concentration needed to halve the response being measured.
